Experiment [1] concerns P. aeruginosa PAO1. In words: Bacterial count after treatment, before TEM sample preparation. It counts as cell-based, Pseudomonas aeruginosa. Particulars: P. aeruginosa PAO1, […] MH pH 8.5, 10x MIC. Here is the method: (§1) Just before the samples were further prepared for the microscopy, surviving bacteria were quantified by plating 10-fold dilutions of samples in sterilized normal saline (NaCl 0.9%) on LB agar plates. […] The assay was performed in triplicate. Each bacteria sample was centrifuged at 12,000 rpm for 3 min, and the supernatant was discarded. The samples were then further processed and imaged using our previously described protocol.[64]
8. Transmission electron microscopy (TEM)
Table S4: Bacterial counts, 2 hours after treatment, before TEM sample preparation. Data represents triplicates.
Bacteria count after treatment at 10x MIC and 2 h of incubation at 37 °C
Control (non-treated cells) 1 × 10^8 CFU (100)

The test system of experiment [2] is P. aeruginosa PAO1. In words: Transmission electron microscopy (TEM). It counts as cell-based, Pseudomonas aeruginosa. As to conditions: P. aeruginosa PAO1, 10 × MIC, […] MH at pH 8.5, 2 h at 37 °C. Here is the method:
Scale bars are 500 nm and 1 μm. Red arrows: membrane perturbations. Blue arrows: intracellular aggregation. Yellow arrows: empty area within the cell.
as §1

Where a SMILES comes first, the peptide text is derived from it. [ ]: non-standard residue; d: D form. Nleu = CC(C)CNCC(=O)O; Nlys = NCCCCNCC(=O)O

Consider `CC(C)C[C@H](NC(=O)CN(CC(C)C)C(=O)[C@H](CC(C)C)NC(=O)CN(CCCCN)C(=O)[C@H](CC(C)C)NC(=O)CN(CC(C)C)C(=O)[C@H](CCCCN)NC(=O)CN(CC(C)C)C(=O)[C@H](CC(C)C)NC(=O)CN(CCCCN)C(=O)[C@@H](N)CCCCN)C(N)=O` [EB9, KkLlKlLkLlL] (H-K[Nlys]L[Nleu]K[Nleu]L[Nlys]L[Nleu]L-NH2), for which the “Bacteria count after treatment at 10x MIC and 2 h of incubation at 37 °C (% of control)” value in the experiment on P. aeruginosa PAO1 [1] was 0.01 % of control. In addition, in the experiment on P. aeruginosa PAO1 [2], the “TEM micrographs, changes in treated bacteria” value is on record as “aggregation of intracellular components as the major effect”.
Taken in the same sequence, the figures for “H-KKLLKLLKLLL-NH2 [ln65, reference compound]” were 0.01 % of control and “strong membrane-disruptive activity”.

Values taken from PMC10714400, “Antimicrobial Peptide–Peptoid Hybrids with and without Membrane Disruption” (ACS Infectious Diseases, 2023).
